Data on 20 molecules can be found in patent US20160297833A1, “THIENOPYRIMIDINES AS MKNK1 AND MKNK2 INHIBITORS” (BAYER PHARMA AKTIENGESELLSCHAFT, priority 2013, published 2016).

The target in one assay is T1, human full-length MKNK1 (Homo sapiens, UniProt Q9BUB5, T385D).
T1 construct: GST (N); purchased Carna Biosciences 02-145; host or cells: insect cells (baculovirus expression system)
T1 sequence (Q9BUB5 1-424 isoform Q9BUB5-2 T344D): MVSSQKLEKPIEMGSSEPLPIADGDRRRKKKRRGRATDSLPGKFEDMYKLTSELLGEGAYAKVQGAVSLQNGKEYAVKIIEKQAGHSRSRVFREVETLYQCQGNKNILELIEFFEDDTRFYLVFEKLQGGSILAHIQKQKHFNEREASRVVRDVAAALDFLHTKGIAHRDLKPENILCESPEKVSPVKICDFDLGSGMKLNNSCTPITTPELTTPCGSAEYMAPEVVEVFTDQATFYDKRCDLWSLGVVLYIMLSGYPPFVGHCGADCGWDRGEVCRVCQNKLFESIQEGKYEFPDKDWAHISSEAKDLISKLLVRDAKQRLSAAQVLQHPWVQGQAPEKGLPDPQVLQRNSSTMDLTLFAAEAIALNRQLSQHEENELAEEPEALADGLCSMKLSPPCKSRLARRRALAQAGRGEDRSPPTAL
Put plainly: MKNK1 kinase high ATP assay (TR-FRET). The class given is biochemical.
Settings: not given
The essentials: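 Full-length human MKNK1 (T385D) preincubated 15 min at 22 °C with compound in HEPES pH 7.5/MgCl2/DTT buffer; reaction with 2 mM ATP (final) and 0.06 μM biotinylated peptide (final), 30 min at 22 °C.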
Background: Time-resolved FRET reads energy transfer from a long-lived donor to a nearby acceptor.
`CCOc1cc2[nH]ncc2cc1Nc1ncnc2sc3c(c12)CC[C@@H](C(=O)N1CCC(=O)CC1)C3` [Example 69, 1-({(7R)-4-[(6-Ethoxy-1H-indazol-5-yl)amino]-5,6,7,8-tetrahydro[1]benzothieno[2,3-d]pyrimidin-7-yl}carbonyl)piperidin-4-one] showed an IC50 of 2.5 nM.

The same assay, now with this note: Table 1; MKNK1 kinase high ATP assay, 2 mM ATP; read-out: MKNK1 IC50.
For `CCN(C)C(=O)[C@H]1CCc2c(sc3ncnc(Nc4ccc5[nH]ncc5c4)c23)C1` [Example 4, (7S)—N-Ethyl-4-(1H-indazol-5-ylamino)-N-methyl-5,6,7,8-tetrahydro[1]benzothieno[2,3-d]pyrimidine-7-carboxamide], the IC50 was 3.5 nM.
For the molecule `CN(C)C(=O)[C@H]1CCc2c(sc3ncnc(Nc4cc5cn[nH]c5cc4NCC(C)(C)O)c23)C1` [Example 100, (7S)-4-({6-[(2-Hydroxy-2-methylpropyl)amino]-1H-indazol-5-yl}amino)-N,N-dimethyl-5,6,7,8-tetrahydro[1]benzothieno[2,3-d]pyrimidine-7-carboxamide], the half-maximal inhibitory concentration (IC50) amounted to 882 nM.
On the same count and under the same terms, then `CSc1cc2[nH]ncc2cc1Nc1ncnc2sc3c(c12)CC[C@H](C(=O)N1C[C@H](C)O[C@@H](C)C1)C3` [Example 246, [(2S,6S)-2,6-Dimethylmorpholin-4-yl][(7S)-4-{[6-(methylsulfanyl)-1H-indazol-5-yl]amino}-5,6,7,8-tetrahydro[1]benzothieno[2,3-d]pyrimidin-7-yl]methanone], with 5.3 nM.
Turning to `COc1cc2[nH]ncc2cc1Nc1ncnc2sc3c(c12)CC[C@H](C(=O)N(C)CC(C)(C)O)C3` [Example 124, (7S)—N-(2-Hydroxy-2-methylpropyl)-4-[(6-methoxy-1H-indazol-5-yl)amino]-N-methyl-5,6,7,8-tetrahydro[1]benzothieno[2,3-d]pyrimidine-7-carboxamide], the IC50 came out at 0.3 nM.
On to `CSc1cc2[nH]ncc2cc1Nc1ncnc2sc3c(c12)CC[C@H](C(=O)N(C)C(C)C)C3` [Example 251, (7S)—N-Methyl-4-{[6-(methylsulfanyl)-1H-indazol-5-yl]amino}-N-(propan-2-yl)-5,6,7,8-tetrahydro[1]benzothieno[2,3-d]pyrimidine-7-carboxamide], for which the IC50 worked out at 1.5 nM.
In the case of `CN(C)C(=O)[C@H]1CCc2c(sc3ncnc(Nc4cc5cn[nH]c5cc4N4CCCC4)c23)C1` [Example 103, (7S)—N,N-Dimethyl-4-{[6-(pyrrolidin-1-yl)-1H-indazol-5-yl]amino}-5,6,7,8-tetrahydro[1]benzothieno[2,3-d]pyrimidine-7-carboxamide], the half-inhibitory concentration (IC50) amounted to 1.3 nM.
Turning to `CCN(CCOC)C(=O)[C@H]1CCc2c(sc3ncnc(Nc4cc5cn[nH]c5cc4N4CCC(N(C)C)CC4)c23)C1` [Example 157, (7S)-4-({6-[4-(Dimethylamino)piperidin-1-yl]-1H-indazol-5-yl}amino)-N-ethyl-N-(2-methoxyethyl)-5,6,7,8-tetrahydro[1]benzothieno[2,3-d]pyrimidine-7-carboxamide], the IC50 was 21.6 nM.
Regarding `COc1cc2[nH]ncc2cc1Nc1ncnc2sc3c(c12)CC[C@H](C(=O)N(C)CCC(F)(F)F)C3` [Example 123, (7S)-4-[(6-Methoxy-1H-indazol-5-yl)amino]-N-methyl-N-(3,3,3-trifluoropropyl)-5,6,7,8-tetrahydro[1]benzothieno[2,3-d]pyrimidine-7-carboxamide], the IC50 came out at 0.4 nM.
As to `CN(C)C(=O)[C@H]1CCc2c(sc3ncnc(Nc4cc5cn[nH]c5cc4Br)c23)C1` [Example 181, (7S)-4-[(6-Bromo-1H-indazol-5-yl)amino]-N,N-dimethyl-5,6,7,8-tetrahydro[1]benzothieno[2,3-d]pyrimidine-7-carboxamide], the concentration for half-maximal inhibition (IC50) was determined as 3.6 nM.
`COc1cc2[nH]ncc2cc1Nc1ncnc2sc3c(c12)CC[C@H](C(=O)N(CCO)CCCN(C)C)C3` [Example 58, (7S)—N-[3-(Dimethylamino)propyl]-N-(2-hydroxyethyl)-4-[(6-methoxy-1H-indazol-5-yl)amino]-5,6,7,8-tetrahydro[1]benzothieno[2,3-d]pyrimidine-7-carboxamide]: the IC50 was determined as 0.3 nM.
For `CC(C)Oc1cc2[nH]ncc2cc1Nc1ncnc2sc3c(c12)CC[C@H](C(=O)N1C[C@@H](O)[C@H](O)C1)C3` [Example 93, [(3R,4R)-3,4-Dihydroxypyrrolidin-1-yl][(7S)-4-{[6-(propan-2-yloxy)-1H-indazol-5-yl]amino}-5,6,7,8-tetrahydro[1]benzothieno[2,3-d]pyrimidin-7-yl]methanone], the IC50 stood at 0.1 nM.
`COc1cc2[nH]ncc2cc1Nc1ncnc2sc3c(c12)CC[C@H](C(=O)N1CC2(COC2)C1)C3` [Example 32, {(7S)-4-[(6-Methoxy-1H-indazol-5-yl)amino]-5,6,7,8-tetrahydro[1]benzothieno[2,3-d]pyrimidin-7-yl}(2-oxa-6-azaspiro[3.3]hept-6-yl)methanone]: the concentration for half-maximal inhibition (IC50) was found to be 1 nM.
In the case of `COc1cc2[nH]ncc2cc1Nc1ncnc2sc3c(c12)CC[C@H](C(=O)N(C)CCN(C)C)C3` [Example 51, (7S)—N-[2-(Dimethylamino)ethyl]-4-[(6-methoxy-1H-indazol-5-yl)amino]-N-methyl-5,6,7,8-tetrahydro[1]benzothieno[2,3-d]pyrimidine-7-carboxamide], the 50% inhibitory concentration (IC50) was determined as 0.1 nM.
As to `COc1cc2[nH]ncc2cc1Nc1ncnc2sc3c(c12)CC[C@H](C(=O)N(C)CCCn1ccnc1)C3` [Example 170, (7S)—N-[3-(1H-Imidazol-1-yl)propyl]-4-[(6-methoxy-1H-indazol-5-yl)amino]-N-methyl-5,6,7,8-tetrahydro[1]benzothieno[2,3-d]pyrimidine-7-carboxamide], the IC50 came out at 0.6 nM.
`CCCOc1cc2[nH]ncc2cc1Nc1ncnc2sc3c(c12)CC[C@H](C(=O)N1CC(O)C1)C3` [Example 159, (3-Hydroxyazetidin-1-yl){(7S)-4-[(6-propoxy-1H-indazol-5-yl)amino]-5,6,7,8-tetrahydro[1]benzothieno[2,3-d]pyrimidin-7-yl}methanone]: the concentration for half-maximal inhibition (IC50) was 1.9 nM.
For the molecule `CC1(O)CN(C(=O)[C@H]2CCc3c(sc4ncnc(Nc5ccc6[nH]ncc6c5)c34)C2)C1` [Example 17, (3-Hydroxy-3-methylazetidin-1-yl)[(7S)-4-(1H-indazol-5-ylamino)-5,6,7,8-tetrahydro[1]benzothieno[2,3-d]pyrimidin-7-yl]methanone], the half-maximal inhibitory concentration (IC50) is 9.4 nM.
On the same count and under the same terms, for `CSc1cc2[nH]ncc2cc1Nc1ncnc2sc3c(c12)CC[C@H](C(=O)N(C)CCC(F)(F)F)C3` [Example 249, (7S)—N-Methyl-4-{[6-(methylsulfanyl)-1H-indazol-5-yl]amino}-N-(3,3,3-trifluoropropyl)-5,6,7,8-tetrahydro[1]benzothieno[2,3-d]pyrimidine-7-carboxamide] the value was 2.3 nM.
`CC(C)Oc1cc2[nH]ncc2cc1Nc1ncnc2sc3c(c12)CC[C@H](C(=O)N1CCOC[C@H]1C)C3` [Example 85, [(3R)-3-Methylmorpholin-4-yl][(7S)-4-{[6-(propan-2-yloxy)-1H-indazol-5-yl]amino}-5,6,7,8-tetrahydro[1]benzothieno[2,3-d]pyrimidin-7-yl]methanone]: the concentration for half-maximal inhibition (IC50) was determined as 0.6 nM.
`C[C@@H]1COCCN1C(=O)[C@H]1CCc2c(sc3ncnc(Nc4cc5cn[nH]c5cc4OC[C@@H](C)N)c23)C1` [Example 150, {(7S)-4-[(6-{[(2R)-2-Aminopropyl]oxy}-1H-indazol-5-yl)amino]-5,6,7,8-tetrahydro[1]benzothieno[2,3-d]pyrimidin-7-yl}[(3R)-3-methylmorpholin-4-yl]methanone]: the IC50 was 7.3 nM.

The IC50 is the midpoint of a concentration-inhibition curve.
